According to EPA's ToxValDB 9.5 (doi:10.2903/j.efsa.2016.4491):

Assays:
Poecilus cupreus = assay: LR50; higher = less toxic; settings: not reported; mortality
Canidae = settings: chronic, oral, Dog Other, clinical signs
Bibionidae = settings: chronic/long-term; duration: 28 days
Daphnia magna = settings: chronic/long-term; duration: 21 days; reproduction

CC[C@H](C)[C@H]1O[C@]2(C=C[C@@H]1C)C[C@@H]1C[C@@H](C/C=C(\C)[C@@H](O[C@H]3C[C@H](OC)[C@@H](O[C@H]4C[C@H](OC)[C@@H](O)[C@H](C)O4)[C@H](C)O3)[C@@H](C)/C=C/C=C3\CO[C@@H]4[C@H](O)C(C)=C[C@@H](C(=O)O1)[C@]34O)O2.CO[C@H]1C[C@H](O[C@H]2[C@H](C)O[C@@H](O[C@@H]3/C(C)=C/C[C@@H]4C[C@@H](C[C@]5(C=C[C@H](C)[C@@H](C(C)C)O5)O4)OC(=O)[C@@H]4C=C(C)[C@@H](O)[C@H]5OC/C(=C\C=C\[C@@H]3C)[C@]54O)C[C@@H]2OC)O[C@@H](C)[C@@H]1O [Abamectin]
LR50 (Poecilus cupreus): > 58 g/ha
NOAEL (Canidae; duration: 18 weeks): 0.25 mg/kg-day
NOAEL (Canidae; duration: 53 weeks): 0.25 mg/kg-day
LD50 (Anas platyrhynchos; acute, oral, unspecified, mortality): ≤ 77 mg/kg-day
NOEC (Anas platyrhynchos; chronic/long-term, M): 1.33 mg/kg-day
LC50 (Anas platyrhynchos; short-term, oral, feed, mortality): 48.6 mg/kg-day
LD50 (Oncorhynchus mykiss; acute, duration: 96 hours, mortality): 0.0036 mg/L
NOEC (Oncorhynchus mykiss; chronic/long-term, duration: 28 days): 0.00052 mg/L
NOEC (Bibionidae): 8.1e-05 mg/L
NOEC (Daphnia magna): 1e-05 mg/L
LC50 (Tagia sp.; acute, duration: 14 days, mortality): 33 mg/kg
NOEC (Tagia sp.; not reported): ≥ 0.72 mg/kg
NOAEL (Rattus norvegicus; acute, clinical signs): 0.5 mg/kg-day
LD50 (Rattus norvegicus; acute, mortality): 8.7 mg/kg
NOEC (Rattus norvegicus; chronic, oral): 0.12 mg/kg-day
